In patent publication US20110280940A1, “Di-Vanilloyl And Tri-Vanilloyl Derivatives For Use In Anti-Cancer Therapy” (priority 2008, published 2011):
Where two headings read alike, the source gives them in different places.

Tests used:
VM21 melanoma cells = experiment: MTT colorimetric assay, overall cell growth, VM21; assay type: cell-based, human; conditions: MTT, 72 hours of incubation, read-out: In Vitro IC50 Growth Inhibitory Values, VM21
Text: (§1) The amount of formazan obtained at the end of the experiment, measured by means of a spectrophotometer, is directly proportional to the number of living cells. Optical density determination thus enabled a quantitative measurement of the effect of the investigated compounds as compared to the control condition (untreated cells) and/or to other reference compounds. Eleven human cancer cell lines and one mouse melanoma cell-line (B16F10) described in Table 2 were used in the following MTT tests. These cancer cell lines cover seven histological cancer types including prostate (PC3), glioma (Hs683, T98G, U373, melanoma (VM21, VM28), non-small-cell-lung (A549), breast (MCF-7), colon (LoVo) and oesophageal (OE21, OE33) cancers. […] Each cell line was seeded in its appropriate culture medium. The detailed experimental procedure was the following: after a 24-hour period of incubation at 37° C., the culture medium was replaced by 100 μl of fresh medium in which the tested compound was previously dissolved, at the following molar concentrations: 10^-8 […] and 10^-4 M. Each experiment was performed in sestuplicates (6 times). After 72 hours of incubation at 37° C. with (experimental conditions) or without (control condition) the compound to be tested, the medium was replaced by 100 μl MTT dissolved in RPMI (1640 without phenol red) at a concentration of 0.5 or 1 mg/ml. The micro-wells were subsequently incubated during 3 hours and a half at 37° C. and centrifuged at 1300 rpm during 10 minutes. MTT was removed and formazan crystals formed were dissolved in 100 μl DMSO. The micro-wells were shaken for 5 minutes and read on a spectrophotometer at wavelengths of 570 nm (maximal formazan absorbance). For each experimental condition, the mean optical density was calculated, allowing the determination of the percentage of remaining living cells in comparison to the control. […] The origin of all the cell lines we used, along with their biological characteristics, and the validation procedures of the MTT colorimetric assay as employed here are fully detailed in Van Quaquebeke et al., 2005, J Med Chem 48:849-856; […]

VM48 melanoma cells = experiment: MTT colorimetric assay, overall cell growth, VM48; assay type: cell-based, human; conditions: MTT, 72 hours of incubation, read-out: In Vitro IC50 Growth Inhibitory Values, VM48
[1] = system: Eleven human cancer cell lines; experiment: MTT colorimetric assay, across the eleven human cancer cell lines; assay type: cell-based; conditions: mean ± SEM over the 11 human cancer cell lines, MTT, 72 hours; read-out: In Vitro IC50 Growth Inhibitory Values, m ± SEM
Text: as §1

U373-MG glioma cell line = experiment: Cellular imaging (quantitative videomicroscopy), global growth ratio, U373; assay type: cell-based; conditions: Homo sapiens, 50 μM, 72 h, read-out: Global Grow Ratio Treated/Ct (GGR T/Ct) determined by Video Quantitative microscopy, U373
Text: (§2) As the MTT test is based on the mitochondria functions, we also investigated the effects of the di- and tri-vanilloyl derivatives according to the invention on cell proliferation, migration and morphology by means of a cellular imaging approach (Debeir et al., Cytometry 60:29-40, 2004; Debeir et al., IEEE Trans Med Imaging 24:697-711, 2005) either in the human U373-MG glioma cell line, which is apoptosis-resistant but autophagy-sensitive (Lefranc F et al., Neurosurgery 2008) and in the human A549 non-small-cell-lung cancer cell line, which is apoptosis-resistant and autophagy-resistant (Mijatovic T et al., Neoplasia 2006, May; 8(5):402-12).
(§3) Investigations have also been performed in human normal fibroblasts (WS1 and WI38—see Tables 4 and 5). Cellular imaging relied on the use of computer-assisted phase-contrast microscopy making possible to film the behaviour of living cells in culture dishes for several days.
(§4) Cells were seeded in a 25-cm^2 flask at a low density, treated or not with the vanilloyl-esters invention (at a concentration of 50 μM) and filmed thereafter for a period of 72 h. The experiment was conducted in quadruplicates (in duplicates for DLT-95 compounds).
(§5) The behaviour of the cells, in terms of morphology, growth and death were thus investigated. The effect on the overall growth was measured by counting the number of cells on the first (0 h) and the last image (72 h) of each film. The global growth ratio (GGR) was then deduced by dividing the number of cells on the last image by the number of cells on the first image. The ratio GGRtreated cells/GGRcontrol cells, was further calculated thereby obtaining a value that describes the effect of compounds of the present invention on the overall cell growth. The methodology is fully described and validated in Debeir et al., 2008, Exp Cell Res 314:2985-2998 and Mathieu et al., 2009, J Cell Mol Med, Feb. 20, 2009.
(§6) Illustrative pictures (time=0 h and 72 h) of glioblastoma and normal fibroblast cell line left untreated or treated with poly-vanillic compounds according to the invention (50 μM) are provided in FIG. 1 (U373 glioblastoma) and FIG. 2 (normal fibroblasts). The GGR parameter analyses confirmed the marked impairment of cell growth in both cancer cell lines of the poly-vanillic compounds according to the invention (Table 5).

[2] = system: A549 non-small-cell-lung cancer cell line; experiment: Cellular imaging (quantitative videomicroscopy), global growth ratio, A549; assay type: cell-based; conditions: Homo sapiens, 72 h, read-out: Global Grow Ratio Treated/Ct (GGR T/Ct) determined by Video Quantitative microscopy, A549
Text: as §2, §3, §4, §5, §6

[3] = system: PC-3 prostate cancer cells; experiment: MTT colorimetric assay, overall cell growth, PC-3; assay type: cell-based, human; conditions: 72 hours of incubation, read-out: In Vitro IC50 Growth Inhibitory Values, PC-3
Text: as §1

U373 glioblastoma cells = experiment: MTT colorimetric assay, overall cell growth, U373; assay type: cell-based, human; conditions: 72 hours of incubation, read-out: In Vitro IC50 Growth Inhibitory Values, U373
Text: as §1

Hs683 glioma cells = experiment: MTT colorimetric assay, overall cell growth, Hs683; assay type: cell-based, human; conditions: read-out: In Vitro IC50 Growth Inhibitory Values, Hs683
Text: as §1

T98G glioma cells = experiment: MTT colorimetric assay, overall cell growth, T98G; assay type: cell-based, human; conditions: 72 hours of incubation, read-out: In Vitro IC50 Growth Inhibitory Values, T98G
Text: as §1

[4] = system: A549 non-small-cell-lung cancer cells; experiment: MTT colorimetric assay, overall cell growth, A549; assay type: cell-based, human; conditions: read-out: In Vitro IC50 Growth Inhibitory Values, A549
Text: as §1

[5] = system: MCF-7 breast cancer cells; experiment: MTT colorimetric assay, overall cell growth, MCF-7; assay type: cell-based, human; conditions: read-out: In Vitro IC50 Growth Inhibitory Values, MCF-7
Text: as §1

LoVo colon cancer cells = experiment: MTT colorimetric assay, overall cell growth, LoVo; assay type: cell-based, human; conditions: 72 hours of incubation, read-out: In Vitro IC50 Growth Inhibitory Values, LoVo
Text: as §1

[6] = system: OE21 oesophageal cancer cells; experiment: MTT colorimetric assay, overall cell growth, OE21; assay type: cell-based, human; conditions: read-out: In Vitro IC50 Growth Inhibitory Values, OE21
Text: as §1

[7] = system: OE33 oesophageal cancer cells; experiment: MTT colorimetric assay, overall cell growth, OE33; assay type: cell-based, human; conditions: read-out: In Vitro IC50 Growth Inhibitory Values, OE33
Text: as §1

[8] = system: B16F10 melanoma cell-line; experiment: MTT colorimetric assay, overall cell growth, B16F10; assay type: cell-based, mouse; conditions: read-out: In Vitro IC50 Growth Inhibitory Values, B16F10
Text: as §1

[9] = Homo sapiens, Hs 683, 72 hours of incubation
[10] = Homo sapiens, A549, 72 hours of incubation
[11] = Homo sapiens, MCF7, 72 hours of incubation
[12] = Homo sapiens, OE21, 72 hours of incubation
[13] = Homo sapiens, OE33, 72 hours of incubation
[14] = Mus musculus, B16-F10, 72 hours of incubation

| SMILES | IC50 (VM21 melanoma cells; Homo sapiens) [µM] | IC50 (VM48 melanoma cells; Homo sapiens) [µM] | IC50 [1] [µM] | IC50 ([3]; Homo sapiens) [µM] | IC50 (U373 glioblastoma cells; Homo sapiens, U373 MG) [µM] | IC50 (Hs683 glioma cells; [9]) [µM] | IC50 (T98G glioma cells; Homo sapiens, T98G) [µM] | IC50 [4, 10] [µM] | IC50 [5, 11] [µM] | IC50 (LoVo colon cancer cells; Homo sapiens, LoVo) [µM] | IC50 [6, 12] [µM] | IC50 [7, 13] [µM] | IC50 [8, 14] [µM] | activity at 50 µM (U373-MG glioma cell line) [%] | activity at 50 µM [2] [%] | other results |
| --- | --- | --- | --- | --- | --- | --- | --- | --- | --- | --- | --- | --- | --- | --- | --- | --- |
| COc1cc(C(=O)OCCCOC(=O)c2ccc(O)c(OC)c2)ccc1O [DLT2, Propane-1,3-diyl bis-(4-hydroxy-3-methoxybenzoate)] | 72 | 68 | > 100 | – | – | – | – | – | – | – | – | – | – | 40 | 110 | – |
| COc1cc(C(=O)OCCCCCOC(=O)c2ccc(O)c(OC)c2)ccc1O [DLT3, Pentane-1,5-diyl bis-(4-hydroxy-3-methoxybenzoate)] | > 100 | > 100 | > 100 | > 100 | – | – | – | – | – | – | – | – | – | 70 | 90 | – |
| COc1cc(C(=O)O[C@H]2CCCC[C@H]2OC(=O)c2ccc(O)c(OC)c2)ccc1O [DLT9, cis-cyclohexane-1,2-diyl bis-(4-hydroxy-3-methoxybenzoate)] | 44 | 57 | 48 ± 3 | 35 | 43 | 49 | 76 | – | – | – | – | – | – | 20 | 20 | – |
| COc1cc(C(=O)OCCCCOC(=O)c2ccc(O)c(OC)c2)ccc1O [DLT10, Butane-1,4-diyl bis-(4-hydroxy-3-methoxybenzoate)] | 60 | 52 | > 100 | – | – | – | – | – | – | – | – | – | – | 50 | 20 | – |
| COc1cc(C(=O)NCCCNC(=O)c2ccc(O)c(OC)c2)ccc1O [DLT36, N,N′-Propane-1,3-diyl bis-(4-hydroxy-3-methoxybenzamide)] | – | – | 35 ± 2 | – | – | – | – | – | – | – | – | – | – | – | – | IC50 (U373 glioblastoma cells): 38 µM; IC50 (Hs683 glioma cells; 72 hours of incubation): 31 µM; IC50 ([4]; 72 hours of incubation): 26 µM; IC50 [3]: 40 µM; IC50 ([5]; 72 hours of incubation): 25 µM; IC50 (LoVo colon cancer cells): 32 µM; IC50 (T98G glioma cells): 40 µM; IC50 ([6]; 72 hours of incubation): 28 µM; IC50 ([7]; 72 hours of incubation): 36 µM; IC50 (VM21 melanoma cells): 49 µM; IC50 (VM48 melanoma cells): 43 µM; IC50 ([8]; 72 hours of incubation): 38 µM |
| COc1cc(C(=O)NCCCCCNC(=O)c2ccc(O)c(OC)c2)ccc1O [DLT37, N,N′-Pentane-1,5-diyl bis-(4-hydroxy-3-methoxybenzamide)] | – | – | > 100 | – | – | – | – | – | – | – | – | – | – | – | – | IC50 (U373 glioblastoma cells): 91 µM; IC50 (Hs683 glioma cells; 72 hours of incubation): 80 µM; IC50 ([4]; 72 hours of incubation): 52 µM; IC50 [3]: > 100 µM; IC50 ([5]; 72 hours of incubation): 71 µM; IC50 (LoVo colon cancer cells): 41 µM; IC50 (T98G glioma cells): 55 µM; IC50 ([6]; 72 hours of incubation): 81 µM; IC50 ([7]; 72 hours of incubation): > 100 µM; IC50 (VM21 melanoma cells): > 100 µM; IC50 (VM48 melanoma cells): > 100 µM; IC50 ([8]; 72 hours of incubation): > 100 µM |

Now from value to compound, other results behind:

| IC50 (VM21 melanoma cells; Homo sapiens) [µM] | IC50 (VM48 melanoma cells; Homo sapiens) [µM] | IC50 [1] [µM] | IC50 ([3]; Homo sapiens) [µM] | IC50 (U373 glioblastoma cells; Homo sapiens, U373 MG) [µM] | IC50 (Hs683 glioma cells; [9]) [µM] | IC50 (T98G glioma cells; Homo sapiens, T98G) [µM] | IC50 [4, 10] [µM] | IC50 [5, 11] [µM] | IC50 (LoVo colon cancer cells; Homo sapiens, LoVo) [µM] | IC50 [6, 12] [µM] | IC50 [7, 13] [µM] | IC50 [8, 14] [µM] | SMILES | activity at 50 µM (U373-MG glioma cell line) [%] | activity at 50 µM [2] [%] | other results |
| --- | --- | --- | --- | --- | --- | --- | --- | --- | --- | --- | --- | --- | --- | --- | --- | --- |
| 28 | 26 | 42 | – | – | – | – | – | – | – | – | – | – | COc1cc(C(=O)OCCCCCCCCOC(=O)c2ccc(O)c(OC)c2)ccc1O [DLT13, Octane-1,8-diyl bis-(4-hydroxy-3-methoxybenzoate)] | 20 | 20 | – |
| 33 | 22 | 29 | 36 | 36 | 27 | 32 | 24 | 27 | 24 | 28 | 28 | 9 | COc1cc(C(=O)O[C@H]2CCC[C@H]2OC(=O)c2ccc(O)c(OC)c2)ccc1O [DLT14, cis-cyclopentane-1,2-diyl bis-(4-hydroxy-3-methoxybenzoate)] | – | – | – |
| 34 | 84 | 57 | 81 | 52 | 53 | 45 | 72 | 53 | 48 | 31 | 73 | 27 | O=C(OCCOC(=O)c1ccc(O)c(Cl)c1)c1ccc(O)c(Cl)c1 [DLT23, Ethane-1,2-diyl bis-(4-hydroxy-3-chlorobenzoate)] | – | – | – |
| 37 | 35 | 30 ± 3 | 30 | 28 | 27 | 28 | 23 | 55 | 29 | 16 | 19 | 41 | O=C(OCCOC(=O)c1cc(O)c(O)c(O)c1)c1cc(O)c(O)c(O)c1 [DLT31, Ethane-1,2-diyl bis-(3,4,5-trihydroxybenzoate)] | – | – | – |
